According to patent US9051335B2, “Antipruritic agent for pruritus caused by multiple sclerosis” (TORAY INDUSTRIES, INC., priority 2005, dated 2015):

System: MRL/lpr mice
Experiment: Spontaneous scratching behavior in MRL/lpr mice (antipruritic effect)
Format: in vivo
Conditions: 20 weeks old female MRL/lpr mice, n=8
Method: [drawing 8] which is an κ opioid receptor agonist compound against pruritus was evaluated. The evaluation was carried out over 5 days dividedly. On Day 1, sterilized distilled water was orally administered 30 minutes before the beginning of the recording of the scratching behavior, and the number of scratching behavior when the mouse received a solvent was counted for 60 minutes. On Day 2, Compound 1 was orally administered to the same mouse 30 minutes before the beginning of the recording of the scratching behavior at a dose of 3 μg/kg, and the number of scratching behavior was counted for 60 minutes. On Days 3 to 5, the experiments were carried out in the same schedule as in Day 2 increasing the dose of Compound 1 such that the doses of Compound 1 on Day 3, Day 4 and Day 5 were 10 μg/kg, 30 μg/kg and 100 μg/kg, respectively (n=8). […] The number of scratching behavior was counted visually by replaying the video tape. The number of scratching behavior was counted such that the series of behavior from raising the hind leg for starting the scratching to putting down the hind leg were counted as one scratching behavior. […]

SMILES: CN(C(=O)/C=C/c1ccoc1)[C@@H]1CC[C@@]2(O)[C@H]3Cc4ccc(O)c5c4[C@@]2(CCN3CC2CC2)[C@H]1O5.Cl [Compound 1, (−)-17-cyclopropylmethyl-4,5α-epoxy-3,14β-dihydroxy-6β-(N-methyl-trans-3-(3-furyl)acrylamido)morphinan hydrochloric acid salt]
- number of scratching behavior (60 minutes) versus control group at the time of administration of the solvent (30 μg/kg orally 30 minutes before recording, significant at statistical level of 5%): decreased
- number of scratching behavior (60 minutes) versus control group at the time of administration of the solvent (100 μg/kg orally 30 minutes before recording, significant at statistical level of 1%): decreased
